The results in this text go back to US20090257975A1, “Solid and Semi-Solid Polymeric Ionic Conjugates” (Pfizer Inc, priority 2002, published 2009).

This data set is described as follows: Solubility determination of ziprasidone in pH 7.4 PBS (shaken vials, HPLC). Format: physicochemical. As to conditions: concentration of ziprasidone in solution. The method, then:
The following samples were evaluated for solubility: • 1. Ziprasidone-polymer ionic conjugate FIVE (40% ziprasidone, 60% polymer composed of Lactide/Glycolide/Malic acid at molar ratios of 4:1:0.65M) • 2. Ziprasidone-polymer ionic conjugate in gel former (Solution of Conjugate FIVE in a typical gel former, The conjugate was dissolved in a mixture (1:1 by weight) with a mixture of two gel formers made individually of PEG-400 grafted with Trimethylene carbonate/Caprolactone/Glycolide and PEG-400 grafted with Lactide/Glycolide • 3. Ziprasidone mesylate salt • 4. Ziprasidone free base
Excess of each of the above sample were placed in a screw-cap vial with 2 ml of pH 7.4, PBS (Dulbecco's Phosphate-Buffered Saline) solution, and the vials were shaken continuously for 7 days. Ziprasidone free base and its mesylate salt were used as controls. The concentration of ziprasidone in solution was determined at 15 minutes, 6 hours, 24 hours, and 7 days. The HPLC samples were prepared by filtering each suspension through a 0.22-μm syringe filter without any additional dilutions

Converted amounts (≈) assume the structure as drawn. Counter-ions that a name gives are not always drawn.

On to `O=C1Cc2cc(CCN3CCN(c4nsc5ccccc45)CC3)c(Cl)cc2N1` [Ziprasidone Free Base, 5-[2-[4-(1,2-benzisothiazol-3-yl)-1-piperazinyl]ethyl]-6-chloro-1,3-dihydro-2H-indol-2-one], for which the solubility at 6 h (Dulbecco's phosphate-buffered saline (PBS), aqueous buffer, thermodynamic from solid, time point 6 hours) was 0.2 µg/mL (≈ 0.484 µM). Also, the Solubility result (time point 15 minutes) is “Below” and the Solubility entry (time point 7 days) is “Below”.

With `O=C1Cc2cc(CCN3CCN(c4nsc5ccccc45)CC3)c(Cl)cc2N1` [Ziprasidone Mesylate], the solubility at 15 min (Dulbecco's phosphate-buffered saline (PBS), aqueous buffer, thermodynamic from solid, time point 15 minutes) came to 1.5 µg/mL. For the same compound, the Solubility by setting is: (time point 6 hours) 1.1 µg/mL; (time point 7 days) 1.3 µg/mL.

As a reminder, the solubility is the concentration that dissolves in the medium under given conditions. In general, Solubility refers to how much of the substance goes into solution per volume. Lower therefore signals a poorly soluble substance.
